Experimental data reported in paper PMC7935272 (PLoS Pathogens, 2021).
“And” between values parts separate entries of the source, which are not always exact repeats. Equal values may be shown once. “Also recorded” adds a separate entry of the source. Read-outs that look alike come from different tables or passages of the source.

Tests used:
MeV L1708 = MeV L1708 (Measles virus, UniProt Q9WMB3); assay: Biolayer interferometry, MeV L1708 WT; format: binding; settings: for S5 B BLI sensorgram response / S5 C BLI sensorgram response: MeV L1708 WT; for steady-state BLI sensor response: S7 B
RSV L = RSV L (Human respiratory syncytial virus A, UniProt P28887); assay: Biolayer interferometry, RSV L specificity control; format: binding; settings: for steady-state BLI sensor response: S7 C
[1] = tested on: MeV L-P complexes L T776A; format: biochemical; settings: primer extension, L T776A vs WT
WT MeV L-P complexes = WT MeV L-P complexes (Measles virus, UniProt Q9WMB3); assay: Primer extension RdRP assay, GTP only (first nucleotide), L WT; format: biochemical; settings: 5 h, read-out: first nucleotide incorporation signal (FIG 4D densitometry, first row = 100)
in vitro = format: cell-based, African green monkey; settings: African green monkey; Vero-hSLAM, 72 hours
Protocol: (§1) To determine cytotoxic concentrations Vero-hSLAM cells were plated in 96 well plates (1.1 × 10^4 per well) and incubated with three-fold serial dilutions of compound. After incubation of uninfected cells for 72 hours, PrestoBlue substrate (Invitrogen) was added to quantify cell metabolic activity as described. Signal was measured using a BioTek H1 synergy multimode microplate reader. Where applicable, cytotoxic concentrations (CC50) were calculated based on four-parameter variable slope regression modeling.

Vero-hSLAM cells = assay: in vitro; format: cell-based, African green monkey
Protocol: as §1

MeV [2] = assay: Cell-based anti-MeV assays of earlier work
MeV [3] = settings: cited from earlier work
[4] = tested on: canine distemper virus (CDV); settings: oral treatment initiated at first day of viremia; cited from earlier work
MeV [5] = assay: Antiviral dose-response assay, MeV-NanoPEST reporter virus in Vero-hSLAM cells
MeV P-L complexes = MeV P-L complexes (Measles virus, UniProt Q9WMB3); assay: In vitro RdRP assay on 25-nt RSV promoter template (de novo initiation and back-priming); settings: 25-mer RSV promoter template

Cn1nc(C(F)(F)F)cc1C(=O)Nc1ccc(S(=O)(=O)N2CCCC[C@H]2CCN2CCOCC2)cc1 [ERDRP-0519, S(=O)(=O)(N1[C@H](CCN2CCOCC2)CCCC1)c1ccc(NC(=O)c2n(C)nc(C(F)(F)F)c2)cc1]
S5 B BLI sensorgram response (MeV L1708; 10 µM, time 0.2 s): -0.006049
S5 C BLI sensorgram response (MeV L1708; 10 µM, time 0.2 s): -0.00071
S5 B BLI sensorgram response (MeV L1708; 10 µM, time 0.4 s): -0.006539
S5 C BLI sensorgram response (MeV L1708; 10 µM, time 0.4 s): -0.000595
S5 B BLI sensorgram response (MeV L1708; 10 µM, time 0.6 s): -0.006943
S5 C BLI sensorgram response (MeV L1708; 10 µM, time 0.6 s): -0.0003228
S5 B BLI sensorgram response (MeV L1708; 50 µM, time 0 s): -0.01268
S5 C BLI sensorgram response (MeV L1708; 50 µM, time 0 s): 0.001755
S5 B BLI sensorgram response (MeV L1708; 50 µM, time 0.2 s): -0.01168
S5 C BLI sensorgram response (MeV L1708; 50 µM, time 0.2 s): 0.001652
S5 B BLI sensorgram response (MeV L1708; 50 µM, time 0.4 s): -0.01101
S5 C BLI sensorgram response (MeV L1708; 50 µM, time 0.4 s): 0.001542
S5 B BLI sensorgram response (MeV L1708; 50 µM, time 0.6 s): -0.01006
S5 C BLI sensorgram response (MeV L1708; 50 µM, time 0.6 s): 0.001922
steady-state BLI sensor response (MeV L1708; 0.003 uM): 0.007597
steady-state BLI sensor response (MeV L1708; 0.027 uM): 0.01138
steady-state BLI sensor response (MeV L1708; 0.08 uM): 0.01081
steady-state BLI sensor response (MeV L1708; 0.74 uM): 0.01443
steady-state BLI sensor response (MeV L1708; 2.22 uM): 0.01474
steady-state BLI sensor response (MeV L1708; 6.67 uM): 0.01921
binding to RSV polymerase (RSV L; BLI specificity control): No appreciable binding; also recorded: no binding was detected
steady-state BLI sensor response (RSV L; 0.003 uM): 0.004459
steady-state BLI sensor response (RSV L; 0.009 uM): 0.00801
steady-state BLI sensor response (RSV L; 0.027 uM): 0.008695
steady-state BLI sensor response (RSV L; 0.24 uM): 0.01534
steady-state BLI sensor response (RSV L; 0.74 uM): 0.01342
steady-state BLI sensor response (RSV L; 2.22 uM): 0.007742
steady-state BLI sensor response (RSV L; 6.67 uM): 0.01053
steady-state BLI sensor response (RSV L; 20 uM): 0.00593
IC50 increase [1]: 2.5 fold
remaining activity at 0.0152416 µM (WT MeV L-P complexes; 0.0152416 µM): 92.5%
remaining activity at 0.0457247 µM (WT MeV L-P complexes; 0.0457247 µM): 96.8%
remaining activity at 0.137174 µM (WT MeV L-P complexes; 0.137174 µM): 64.3%
remaining activity at 0.411523 µM (WT MeV L-P complexes; 0.411523 µM): 40.5%
remaining activity at 1.23457 µM (WT MeV L-P complexes; 1.23457 µM): 30.4%
remaining activity at 3.7037 µM (WT MeV L-P complexes; 3.7037 µM): 30%
remaining activity at 11.1111 µM (WT MeV L-P complexes; 11.1111 µM): 27.6%
remaining activity at 33.3333 µM (WT MeV L-P complexes; 33.3333 µM): 26%
CC50 (in vitro): > 100000 nM
Cytotoxicity, normalized metabolic activity (Figure 5B) (Vero-hSLAM cells; cpd concentration 0.045725): 92.6189 and 91.5198 and 89.1889
Cytotoxicity, normalized metabolic activity (Figure 5B) (Vero-hSLAM cells; cpd concentration 0.137174): 93.2443 and 94.6845 and 97.0722
Cytotoxicity, normalized metabolic activity (Figure 5B) (Vero-hSLAM cells; cpd concentration 0.411523): 98.6261 and 97.1101 and 101.469
Cytotoxicity, normalized metabolic activity (Figure 5B) (Vero-hSLAM cells; cpd concentration 1.23457): 100.919 and 98.2092 and 94.5139
Cytotoxicity, normalized metabolic activity (Figure 5B) (Vero-hSLAM cells; cpd concentration 3.7037): 98.683 and 65.7665 and 99.5736
Cytotoxicity, normalized metabolic activity (Figure 5B) (Vero-hSLAM cells; cpd concentration 11.1111): 96.5984 and 96.9017 and 98.6451
Cytotoxicity, normalized metabolic activity (Figure 5B) (Vero-hSLAM cells; cpd concentration 33.3333): 105.751 and 104.652 and 106.244
Cytotoxicity, normalized metabolic activity (Figure 5B) (Vero-hSLAM cells; cpd concentration 100): 82.5753 and 96.0868 and 96.0678
IC50 (MeV [2]; Figure 7A source data): 60 nM
IC50 (MeV [2]; −log10(EC50) of literature EC50): 60.1 nM
IC50 (MeV [3]; Figure 7A source data): 59 nM
EC50 (MeV [3]; experimental activity, read-out: EC50): 59 nM
EC50 (MeV [3]; read-out: EC50 in cell-based anti-MeV assays): 70 to 230 nM
survival [4]: all treated animals survived
EC50 (MeV [5]): 200 nM
MeV inhibition, normalized reporter signal (Figure 5B) (MeV [5]; cpd concentration 0.009145): 105.005 and 86.0196
MeV inhibition, normalized reporter signal (Figure 5B) (MeV [5]; cpd concentration 0.027435): 126.572 and 81.3143
MeV inhibition, normalized reporter signal (Figure 5B) (MeV [5]; cpd concentration 0.082305): 101.803 and 75.4494
MeV inhibition, normalized reporter signal (Figure 5B) (MeV [5]; cpd concentration 0.246914): 43.9689 and 25.1431
MeV inhibition, normalized reporter signal (Figure 5B) (MeV [5]; cpd concentration 0.740741): 3.4563 and 3.061
MeV inhibition, normalized reporter signal (Figure 5B) (MeV [5]; cpd concentration 2.22222): 0.8619 and 1.175
MeV inhibition, normalized reporter signal (Figure 5B) (MeV [5]; cpd concentration 6.66667): 0.4673 and 0.8278
3'-elongation after backpriming (MeV P-L complexes): equivalently dose-dependently blocked
